Assay [1] addresses T1, CaM (Bos taurus, UniProt P62157).
T1 construct: made in house; host or cells: E. coli BL21 (DE3)
Briefly: Pull-down assay with immobilized protein and LSM libraries. Type of assay: binding, bovine. The settings on record: H14 library; 1:2 stoichiometry assumed; read-out: Surface mapping KD (apparent). The gist of the method:
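CaM buffer was 20 mM HEPES pH 7.4, 150 mM NaCl, 5 mM CaCl2. LSM sublibrary members ([…]) incubated 30 min, RT, with equimolar His-tagged protein on Co-NTA resin. HPLC-MS measured unbound probes; bound fraction relative to resin-only background gave dissociation constants.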

In assay [2] the target is T2, Gal-1 (Homo sapiens, UniProt P09382).
T2 construct: made in house; host or cells: E. coli BL21(DE3)
The description is as above. In kind it is binding. The settings on record: H14 library; 1:1 binding assumed; read-out: Surface mapping KD (apparent). An outline of the steps: (§1)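 Buffers were HEPES pH 7.4 with 150 mM NaCl, plus 1 mM TCEP and 1 mM CaCl2 (50 mM HEPES) for S100A4 and S100B, 1 mM TCEP for Gal-1, and no additive for RecQ-WH. Immobilized protein at 64 µM was equilibrated 30 min with the LSM sublibrary, and unbound probes were measured by LC-MS.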

The target of assay [3] is T3, S100A4 (Homo sapiens, UniProt P26447).
T3 construct: made in house; host or cells: Escherichia coli BL21(DE3)
The assay is described as above. In kind it is binding. The settings on record: for Kd: H14 library, 1:1 binding assumed, read-out: Surface mapping KD (apparent); for Affinity class of probe (high, medium, low) in pull-down: H14 probes selected for validation. The gist of the method: as §1

The target in assay [4] is T4, S100B (Homo sapiens, UniProt P04271).
T4 construct: made in house; host or cells: Escherichia coli BL21(DE3)
T4 sequence (P04271 1-92): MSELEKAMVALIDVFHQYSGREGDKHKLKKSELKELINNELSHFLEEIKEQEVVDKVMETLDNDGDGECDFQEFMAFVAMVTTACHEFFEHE
The assay is described as above. Type of assay: binding. The settings on record: for Kd: H14 library, 1:1 binding assumed, read-out: Surface mapping KD (apparent); for Affinity class of probe (high, medium, low) in pull-down: H14 probes selected for validation. The gist of the method:
as §1

The target of assay [5] is T5, RecQ-WH (Escherichia coli, UniProt P15043).
T5 construct: coding for residues 408– 523 of E. coli RecQ; made in house; host or cells: E. coli BL21(DE3)
Described as above. Also on record: species or system E. coli. The settings on record: H14 library; 1:1 binding assumed; read-out: Surface mapping KD (apparent). An outline of the steps:
as §1

The target in assay [6] is T1, CaM. Briefly: Competition pull-down with native ligand TRPV1-Ct15. The settings on record: H14 library; competitor peptide 200 µM; read-out: Surface mapping KD (apparent), competition. Type of assay: binding, bovine.
The target in assay [7] is T4, S100B. Kind of assay: Competition pull-down with native ligand RSK1 (689–735). Type of assay: binding. The settings on record: H14 library; competitor peptide 200 µM; read-out: Surface mapping KD (apparent), competition.
Assay [8] concerns the target T5, RecQ-WH. Kind of assay: Competition pull-down with native ligand SSB-Ct8. Type of assay: binding, E. coli. The settings on record: H14 library; competitor peptide 200 µM; read-out: Surface mapping KD (apparent), competition.
The target of assay [9] is T2, Gal-1. Kind of assay: Competition pull-down with lactose. The settings on record: H14 library; lactose 10 mM; read-out: Surface mapping KD (apparent), competition. In kind it is binding. The gist of the method:
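His6-tagged proteins immobilized on Co-NTA resin at 64 µM final with 64-member LSM foldamer sublibraries (1 M each, as printed) in pH 7.4 HEPES/NaCl buffers (Ca2+/TCEP per target), 30 min RT; competitor peptides 200 µM final, lactose 10 mM for Gal-1. Bound fractions from LC-MS loss vs protein-free resin; KD assuming 1:1 binding.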

Assay [10] deals with T3, S100A4. Kind of assay: Competition pull-down with native ligand NMIIA (1893–1923). Type of assay: binding. The settings on record: H14 library; competitor peptide 200 µM; read-out: Surface mapping KD (apparent), competition.

Structures are written as SMILES.

T3 sequence (P26447 whole entry): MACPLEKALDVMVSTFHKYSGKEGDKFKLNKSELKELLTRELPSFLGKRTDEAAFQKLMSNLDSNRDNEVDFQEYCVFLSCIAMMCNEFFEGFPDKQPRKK
T2 sequence (P09382 whole entry): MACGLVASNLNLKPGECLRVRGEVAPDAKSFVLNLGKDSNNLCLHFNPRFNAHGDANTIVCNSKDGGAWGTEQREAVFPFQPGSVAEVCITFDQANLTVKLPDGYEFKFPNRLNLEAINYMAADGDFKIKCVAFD
T5 sequence (P15043 408-523): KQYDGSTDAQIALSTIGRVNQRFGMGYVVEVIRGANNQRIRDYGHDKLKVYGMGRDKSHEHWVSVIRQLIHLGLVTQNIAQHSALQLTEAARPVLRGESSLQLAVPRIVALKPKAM

For the molecule `NC(=O)[C@H]1CCCC[C@@H]1NC(=O)C[C@H](Cc1ccccc1)NC(=O)[C@H]1CCCC[C@@H]1NC(=O)[C@H]1CCCC[C@@H]1NC(=O)C[C@H](Cc1ccccc1)NC(=O)[C@H]1CCCC[C@@H]1N` [H14 FF], the Kd at CaM [1] was found to be 1.2 µM; on Gal-1 [2], 75 µM; at S100A4 [3], 12 µM; at S100B [4], 16 µM; on RecQ-WH [5] it was 134 µM; on CaM [6] it was 47 µM. The Kd turned out to be 180 µM on S100B [7], 312 µM on RecQ-WH [8] and 108 µM at Gal-1 [9].
As for `CSCC[C@@H](CC(=O)N[C@H]1CCCC[C@@H]1C(N)=O)NC(=O)[C@H]1CCCC[C@@H]1NC(=O)[C@H]1CCCC[C@@H]1NC(=O)C[C@H](Cc1ccccc1)NC(=O)[C@H]1CCCC[C@@H]1N` [H14 FM], the Kd is 2 µM on CaM [1]; 284 µM on Gal-1 [2]; 22 µM on S100A4 [3]; 19 µM at S100B [4]; 225 µM at RecQ-WH [5]; 109 µM at CaM [6]. In addition, the Kd at S100B [7] is 352 µM; at RecQ-WH [8], 454 µM; at Gal-1 [9] it was 250 µM.
As to `NC(=O)CC[C@@H](CC(=O)N[C@H]1CCCC[C@@H]1C(=O)N[C@H]1CCCC[C@@H]1C(=O)N[C@H](CC(=O)N[C@H]1CCCC[C@@H]1C(N)=O)Cc1c[nH]c2ccccc12)NC(=O)[C@H]1CCCC[C@@H]1N` [H14 QW], the Kd on CaM [1] amounted to 27 µM; at Gal-1 [2], 169 µM; at S100B [4] it was 79 µM; on RecQ-WH [5], 143 µM; at CaM [6] it was 168 µM; on S100B [7], 473 µM. Also, the Kd at RecQ-WH [8] worked out at 341 µM; on Gal-1 [9] it was 183 µM.
On to `N=C(N)NCCC[C@@H](CC(=O)N[C@H]1CCCC[C@@H]1C(=O)N[C@H]1CCCC[C@@H]1C(=O)N[C@H](CC(=O)N[C@H]1CCCC[C@@H]1C(N)=O)Cc1ccc(O)cc1)NC(=O)[C@H]1CCCC[C@@H]1N` [H14 RY], for which the Kd was 16 µM at CaM [1], 112 µM on S100A4 [3], 40 µM on S100B [4] and 324 µM at S100A4 [10].
Consider `CC[C@H](C)[C@@H](CC(=O)N[C@H]1CCCC[C@@H]1C(N)=O)NC(=O)[C@H]1CCCC[C@@H]1NC(=O)[C@H]1CCCC[C@@H]1NC(=O)C[C@@H](NC(=O)[C@H]1CCCC[C@@H]1N)[C@@H](C)O` [H14 TI], for which the Kd is 69 µM at CaM [1]; 175 µM on Gal-1 [2]; 7 µM on S100A4 [3]; 183 µM on S100B [4]; 473 µM on S100A4 [10]; 266 µM at Gal-1 [9]. Further, the “Binding” value at S100A4 [3] (H14 probes) is “binds”; at S100B [4] (H14 probes), “does not”. Besides, the “Affinity class of probe (high, medium, low) in pull-down” value is “high” at S100A4 [3] and “low” on S100B [4].
Turning to `CC(C)C[C@@H](CC(=O)N[C@H]1CCCC[C@@H]1C(N)=O)NC(=O)[C@H]1CCCC[C@@H]1NC(=O)[C@H]1CCCC[C@@H]1NC(=O)C[C@@H](NC(=O)[C@H]1CCCC[C@@H]1N)[C@@H](C)O` [H14 TL], the Kd at CaM [1] is 69 µM; on Gal-1 [2], 175 µM; at S100A4 [3], 7 µM; on S100B [4], 183 µM; at S100A4 [10] it was 473 µM; at Gal-1 [9] it was 266 µM.
Consider `CC(C)[C@@H](CC(=O)N[C@H]1CCCC[C@@H]1C(N)=O)NC(=O)[C@H]1CCCC[C@@H]1NC(=O)[C@H]1CCCC[C@@H]1NC(=O)C[C@@H](NC(=O)[C@H]1CCCC[C@@H]1N)C(C)C` [H14 VV], for which the Kd on CaM [1] was 7 µM; on Gal-1 [2], 244 µM; at S100A4 [3] it was 3 µM; on S100B [4] it was 73 µM; on S100A4 [10], 356 µM; on S100B [7] it was 198 µM.
`CC(C)[C@@H](CC(=O)N[C@H]1CCCC[C@@H]1C(=O)N[C@H]1CCCC[C@@H]1C(=O)N[C@H](CC(=O)N[C@H]1CCCC[C@@H]1C(N)=O)Cc1c[nH]c2ccccc12)NC(=O)[C@H]1CCCC[C@@H]1N` [H14 VW]: the Kd at CaM [1] turned out to be 13 µM; on Gal-1 [2] it was 98 µM; on S100A4 [3], 11 µM; at S100B [4] it was 16 µM; at RecQ-WH [5], 221 µM; on CaM [6] it was 153 µM. For the same molecule, the Kd on S100B [7] is 60 µM; at RecQ-WH [8] it was 452 µM; at Gal-1 [9] it was 211 µM.
Turning to `NC(=O)[C@H]1CCCC[C@@H]1NC(=O)C[C@H](Cc1ccccc1)NC(=O)[C@H]1CCCC[C@@H]1NC(=O)[C@H]1CCCC[C@@H]1NC(=O)C[C@H](Cc1c[nH]c2ccccc12)NC(=O)[C@H]1CCCC[C@@H]1N` [H14 WF], the Kd at CaM [1] stood at 4 µM; at Gal-1 [2] it was 38 µM; on S100A4 [3] it was 10 µM; on S100B [4], 14 µM; at RecQ-WH [5] it was 62 µM; on CaM [6] it was 29 µM. For the same molecule, the Kd was 177 µM at S100B [7], 106 µM at RecQ-WH [8] and 59 µM at Gal-1 [9].
In the case of `CSCC[C@@H](CC(=O)N[C@H]1CCCC[C@@H]1C(N)=O)NC(=O)[C@H]1CCCC[C@@H]1NC(=O)[C@H]1CCCC[C@@H]1NC(=O)C[C@H](Cc1c[nH]c2ccccc12)NC(=O)[C@H]1CCCC[C@@H]1N` [H14 WM], the Kd worked out at 1.4 µM on CaM [1]; 145 µM on Gal-1 [2]; 43 µM on S100A4 [3]; 45 µM at S100B [4]; 81 µM at RecQ-WH [5]; 251 µM on CaM [6]. Moreover, the Kd is 125 µM at S100B [7], 188 µM at RecQ-WH [8] and 305 µM on Gal-1 [9].
As for `CC(C)[C@@H](CC(=O)N[C@H]1CCCC[C@@H]1C(N)=O)NC(=O)[C@H]1CCCC[C@@H]1NC(=O)[C@H]1CCCC[C@@H]1NC(=O)C[C@H](Cc1c[nH]c2ccccc12)NC(=O)[C@H]1CCCC[C@@H]1N` [H14 WV], the Kd at CaM [1] was determined as 2 µM; on Gal-1 [2], 143 µM; at S100A4 [3] it was 13 µM; at S100B [4], 16 µM; at RecQ-WH [5], 102 µM; on CaM [6] it was 85 µM. Also, the Kd worked out at 116 µM at S100B [7], 268 µM at RecQ-WH [8] and 224 µM at Gal-1 [9].
Take `NC(=O)[C@H]1CCCC[C@@H]1NC(=O)C[C@H](Cc1ccccc1)NC(=O)[C@H]1CCCC[C@@H]1NC(=O)[C@H]1CCCC[C@@H]1NC(=O)C[C@H](Cc1ccc(O)cc1)NC(=O)[C@H]1CCCC[C@@H]1N` [H14 YF]: the Kd on CaM [1] was 2 µM; at Gal-1 [2], 162 µM; at S100A4 [3], 25 µM; at S100B [4], 34 µM; at RecQ-WH [5], 84 µM; on CaM [6], 119 µM. In addition, the Kd at S100B [7] is 149 µM; on RecQ-WH [8], 400 µM; on Gal-1 [9], 234 µM. In addition, the “Affinity class of probe (high, medium, low) in pull-down” value on S100A4 [3] and at S100B [4] was “medium” in each case.
As to `CC(C)[C@@H](CC(=O)N[C@H]1CCCC[C@@H]1C(N)=O)NC(=O)[C@H]1CCCC[C@@H]1NC(=O)[C@H]1CCCC[C@@H]1NC(=O)C[C@H](Cc1ccc(O)cc1)NC(=O)[C@H]1CCCC[C@@H]1N` [H14 YV], the Kd on CaM [1] amounted to 2 µM; at Gal-1 [2] it was 140 µM; at S100A4 [3], 23 µM; at S100B [4], 112 µM; at RecQ-WH [5] it was 212 µM; at CaM [6] it was 448 µM. The Kd stood at 372 µM on S100B [7], 472 µM on RecQ-WH [8] and 223 µM on Gal-1 [9].
